Results taken from patent publication US8895599B2, “Lipoprotein lipase-activating compositions comprising benzene derivates” (Otsuka Pharmaceutical Factory, Inc., priority 2008, dated 2014).

Tests used:
[1] = Therapeutical effect on olive oil-induced triglyceride hyperlipidemia models; assay type: in vivo; conditions: once a day for one week, SD rats, 2 h after olive oil
Description: Test of Therapeutical Effect on Olive Oil-Induced Triglyceride Hyperlipidemia Models
To conduct this test, 6-week-old SD rats (purchased from Charles River Japan) were used.
According to the body weight of the test rats when they were 5 weeks old, the test rats were divided into test groups and a control group with 6 rats per group.
A predetermined amount of each compound prepared in the Examples was measured and placed in an agate mortar. While 5% aqueous gum arabic solution was gradually introduced to the mortar, the compound was uniformly ground and suspended. Test samples were prepared by further adding 5% aqueous gum arabic solution gradually. Subsequently, these test samples were subjected to ultrasonic washing for 10 minutes to homogenize. Test samples were prepared as and when necessary.
The rats of the test groups were orally administered with the compounds of the invention such that rats received the compounds in an amount of 10, 30, or 100 mg/kg. The compounds of the invention were formulated as 5% gum arabic suspensions as described above.
The rats of the control group were orally administered with 5% aqueous gum arabic solution (not containing the compounds of the invention) in an amount of 5 ml/kg body weight. Administration was conducted once a day continuously for one week at a specific time of day after the rats reached 6 weeks of age. This test was performed under non-fasting conditions (rats had free access to feed and water), and the rats were fasted after the final administration of the compounds or 5% aqueous gum arabic solution.
Two hours after the final administration, olive oil was orally administered to the rats from both groups in an amount of 3 ml/kg body weight.
Two hours after the olive oil administration, blood was collected from the abdominal aorta of the rats of the respective groups using a heparinized syringe. The plasma was centrifugally separated from the blood at a temperature of 4° C., and the triglyceride level of the plasma was measured. A Hitachi 7170 automatic analyzer was used as the measuring instrument. Using the values measured from the test groups and control group, the decrease (%) in plasma triglyceride level was calculated according to the following equation: Decrease (%) in plasma triglyceride concentration=(1−E/C)×100 wherein E represents the average plasma triglyceride level in each test group; and C represents the average plasma triglyceride level in the control group.

[2] = Anti-obesity test using Zucker fatty rats; assay type: in vivo; conditions: 100 mg/kg oral, once a day over 4 weeks, relative to control group
Text: Anti-Obesity Test Using Zucker Fatty Rats
Zucker fatty rats are obese rats discovered by Zucker et al., in 1961 as mutants among 13 M rats, which are a hybrid between 13C and M rats. These rats (fa/fa) start to appear distinctly obese from normal broods around the age of 3 weeks. As they age, the weight difference between the fatty rats and normal rats increases. Zucker fatty rats are currently kept by a variety of organizations as simple obesity models, and are readily obtainable.
This test was performed using this rat model to evaluate the anti-obesity action of the compounds of the invention. The preparation method of test samples and the test procedures are described below:
The test samples were prepared in the same manner as in Test Example 2.
Zucker fatty rats and lean rats (both from Charles River Japan) were purchased at the age of 5 weeks. They were divided into groups (10 rats per group) according to body weight when they reached 6 weeks old. After acclimatization, the administration of test samples was initiated when the rats reached 8 weeks old. Test samples were orally administered using an oral gavage so that the compounds of the invention contained in the test samples were given in an amount of 100 mg/kg body weight (test sample dosage: 5 ml/kg body weight). The test samples were administered once a day over 4 weeks at a specific time of day.
As a control, a group of rats were administered with the same amount of 5% aqueous gum arabic solution (5 ml/kg body weight) instead of the test samples.
The rats of all groups were weighed on the last day of administration. The average body weight of the rats of each test group was compared with the average body weight (standard weight) of the rats of the control group to obtain the weight variations (differences). The weight differences were expressed as percentages in relation to the standard weight. The values thus calculated are referred to as “weight change %”. When a weight difference is negative relative to the standard weight, weight change % is shown with “−” (minus).
During the test period, the rats of the respective groups had free access to rat feed (“CRF-1”, manufactured by Oriental Yeast, Co., Ltd.) and water (tap water).

[3] = Anti-obesity test using AKR mice (high-fat feed); assay type: in vivo; conditions: 1 mg per gram of feed in high-fat feed, 7 weeks, AKR/J mice, relative to high-fat feed control group
Text: Anti-Obesity Test Using AKR Mice
Furthermore, this test enables the evaluation of therapeutic effects on diabetes. That is, it is reported that insulinemia can be observed in AKR/J mice when they are fed with a high-fat diet (see Am. J. Physiol. 266 (5 Pt 2), May 1994: R1423-8). It is thus known that insulinemia is strongly associated with diabetes (see, for example, J. Cardiovasc. Nurs. 16 (2), January 2002: 17-23). Therefore, this test can verify the therapeutic effects of the compounds of the present invention, used as test compounds, on diabetes.
For rat feed, powdered CRF-1 (Charles River Formula 1, manufactured by Oriental Yeast, Co., Ltd.) was used as normal feed. As high-fat feed, that prepared by blending CRF-1 with 18% safflower oil (Oriental Yeast, Co., Ltd.) was used.
Test substances were blended with the high-fat feed in an amount of 1 mg per gram of CRF-1.
AKR/J mice (from CLEA Japan, Inc.) were purchased at the age of 4 weeks. They were roughly divided into 2 groups according to body weight when the mice reached 5 weeks old. During this period, all mice were given the normal feed.
Subsequently, the mice of one group (8 mice) continued to be fed with the normal feed (normal feed group). The mice of the other group (8×(the number of the test substances+1) mice) were given the high-fat feed (high-fat feed group).
The body weight of the mice of each group was measured daily. […] These mice were further reared for 7 weeks (“test substances+high-fat feed groups”; n=8 per type of test substance). Specifically, the administration of the test substances was continued for 7 weeks. A group of mice to which high-fat feed containing no test substance was continued to be given was used as a control (high-fat feed control group; n=8).
Four hours after the feeding on the last day of the 7-week test (the last day of the test), the body weight of the mice of the “test substances+high fat feed groups” was measured. Blood was collected from the abdominal aorta of the mice using a heparinized syringe, and the leptin and insulin levels in the plasma were measured using an Elisa kit (produced by Morinaga). The mice of the other groups (normal feed group and high-fat feed control group) were reared till the last day of the test as above, and 4 hours after the last feeding on the last day of the test the measurements were performed according to the same procedures.
The average values of the test results (body weight, leptin level, and insulin level) of the test substances+high-fat feed groups to which the compounds prepared in Examples (Examples 10 and 58) were used as test substances (hereinbelow referred to as the “Example Compound 10-mixed high-fat feed group” and “Example Compound 58-mixed high-fat feed group”) were compared with the respective average values (standard values) of the results obtained from the mice of the high-fat control group to obtain the variations (differences). The differences were expressed as percentages in relation to the standard values. The values thus calculated were referred to as “weight change (%)”, “leptin level change (%)”, and “insulin level change (%)”. In the table below, the symbols “−” (minus) indicate that the differences are negative relative to the standard values.

COc1cc(-c2cn3ccccc3n2)ccc1OCc1ccc(Cl)cc1 [Example 10]
Decrease in plasma triglyceride level (%) ([1]; 10 mg/kg oral): 48% | Decrease in plasma triglyceride level (%) ([1]; 30 mg/kg oral): 67% | Decrease in plasma triglyceride level (%) ([1]; 100 mg/kg oral): 74% | Weight Change (%) [2]: −15% | Weight Change (%) [3]: −15% | Insulin level change (%) ([3]; plasma): −54% | Leptin level change (%) ([3]; plasma): −68% | melting point: 141 to 143 °C
